Measured values reported in PubChem BioAssay AID2060490 (Molecular Pharmacology Branch, DTP, NCI, 2025).

Tested on: 885512-296-R-J2-PDC complex spheroid viability
Assay: Anticancer human tumor 885512-296-R-J2-PDC patient-derived breast carcinoma cell line growth inhibition [GQUAD]
Details: for IC50: curve of first compound; for viability, T/C: stronger effect = lower value; active = viability on the fitted dose curve at most 10% of control; inactive = the rest
How it was run: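 Multi-cell-type spheroids of tumor cells with HUVEC and mesenchymal stem cells, treated with drug combinations. Concentrations descend in half-log steps from near clinical Cmax, or from 10 microM where Cmax is unknown; viability read-out.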

[1] = second compound 0.0316 µM, first compound 0.0316 µM
[2] = second compound 0.0316 µM, first compound 0.1 µM
[3] = second compound 0.0316 µM, first compound 0.316 µM
[4] = second compound 0.0316 µM, first compound 1 µM
[5] = second compound 0.0316 µM, first compound 3.16 µM
[6] = second compound 0.0316 µM, first compound 10 µM
[7] = second compound 0.1 µM, first compound 0.0316 µM
[8] = second compound 0.1 µM, first compound 0.1 µM
[9] = second compound 0.1 µM, first compound 0.316 µM
[10] = second compound 0.1 µM, first compound 1 µM
[11] = second compound 0.1 µM, first compound 3.16 µM
[12] = second compound 0.1 µM, first compound 10 µM
[13] = second compound 0.316 µM, first compound 0.0316 µM
[14] = second compound 0.316 µM, first compound 0.1 µM
[15] = second compound 0.316 µM, first compound 0.316 µM
[16] = second compound 0.316 µM, first compound 1 µM
[17] = second compound 0.316 µM, first compound 3.16 µM
[18] = second compound 0.316 µM, first compound 10 µM
[19] = second compound 1 µM, first compound 0.0316 µM
[20] = second compound 1 µM, first compound 0.1 µM
[21] = second compound 1 µM, first compound 0.316 µM
[22] = second compound 1 µM, first compound 1 µM
[23] = second compound 1 µM, first compound 3.16 µM
[24] = second compound 1 µM, first compound 10 µM
[25] = second compound 3.16 µM, first compound 0.0316 µM
[26] = second compound 3.16 µM, first compound 0.1 µM
[27] = second compound 3.16 µM, first compound 0.316 µM
[28] = second compound 3.16 µM, first compound 1 µM
[29] = second compound 3.16 µM, first compound 3.16 µM
[30] = second compound 3.16 µM, first compound 10 µM
[31] = second compound 10 µM, first compound 0.0316 µM
[32] = second compound 10 µM, first compound 0.1 µM
[33] = second compound 10 µM, first compound 0.316 µM
[34] = second compound 10 µM, first compound 1 µM
[35] = second compound 10 µM, first compound 3.16 µM
[36] = second compound 10 µM, first compound 10 µM
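Note: spheroids exposed to the compounds for one week.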
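Throughout, for viability, T/C: percent of tumor spheroid viability relative to DMSO vehicle control wells.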

C=CCn1c(=O)c2cnc(Nc3ccc(N4CCN(C)CC4)cc3)nc2n1-c1cccc(C(C)(C)O)n1 + Cc1[nH]c2ccc(F)cc2c1-c1nc2c3cccnc3c3ncccc3c2[nH]1
6.58 µM: IC50 (second compound 0.0316 µM)
active: viability, T/C [24] 8.34% | viability, T/C [25] 6.03% | viability, T/C [26] 7.36% | viability, T/C [27] 2.92% | viability, T/C [28] 6.25% | viability, T/C [29] 8.08% | viability, T/C [30] 1.1% | viability, T/C [31] 1.82% | viability, T/C [32] 2.1% | viability, T/C [33] 2.49% | viability, T/C [34] 1.79% | viability, T/C [35] 2.05% | viability, T/C [36] 1.03%
inactive: viability, T/C [1] 128% | viability, T/C [2] 96.4% | viability, T/C [3] 96.5% | viability, T/C [4] 125% | viability, T/C [5] 83.7% | viability, T/C [6] 30.8% | viability, T/C [7] 108% | viability, T/C [8] 102% | viability, T/C [9] 97.2% | viability, T/C [10] 104% | viability, T/C [11] 88% | viability, T/C [12] 29.2% | viability, T/C [13] 88% | viability, T/C [14] 98% | viability, T/C [15] 96.1% | viability, T/C [16] 95.6% | viability, T/C [17] 89.2% | viability, T/C [18] 23% | viability, T/C [19] 74.3% | viability, T/C [20] 68.4% | viability, T/C [21] 61.6% | viability, T/C [22] 59.1% | viability, T/C [23] 37.4%
6.68 µM: IC50 (second compound 0.1 µM)
1.46 µM: IC50 (second compound 1 µM)
6.26 µM: IC50 (second compound 0.316 µM)
< 0.0316 µM: IC50 (second compound 3.16 µM) | IC50 (second compound 10 µM)

CCc1c2c(nc3ccc(O)cc13)-c1cc3c(c(=O)n1C2)COC(=O)[C@]3(O)CC + Cc1cnc(CNC(=O)c2c(=O)c3ccc(N4CCCN(C)CC4)nc3n3c2sc2ccccc23)cn1
inactive: viability, T/C (second compound 0.0316 µM, first compound 0.000999 µM) 17.9% | viability, T/C (second compound 0.1 µM, first compound 0.000999 µM) 17% | viability, T/C (second compound 0.1 µM, first compound 0.00316 µM) 10.5% | viability, T/C (second compound 0.316 µM, first compound 0.000999 µM) 16.3% | viability, T/C (second compound 0.316 µM, first compound 0.00316 µM) 12.1% | viability, T/C (second compound 1 µM, first compound 0.000999 µM) 16.7% | viability, T/C (second compound 1 µM, first compound 0.00316 µM) 14.3% | viability, T/C (second compound 3.16 µM, first compound 0.000999 µM) 26.4% | viability, T/C (second compound 3.16 µM, first compound 0.00316 µM) 19.8%
active: viability, T/C (second compound 0.0316 µM, first compound 0.00316 µM) 8.3% | viability, T/C (second compound 0.0316 µM, first compound 0.00999 µM) 5.81% | viability, T/C [1] 3.27% | viability, T/C (second compound 0.0316 µM, first compound 0.0999 µM) 2% | viability, T/C [3] 1.37% | viability, T/C (second compound 0.1 µM, first compound 0.00999 µM) 6.32% | viability, T/C [7] 4.29% | viability, T/C (second compound 0.1 µM, first compound 0.0999 µM) 2.34% | viability, T/C [9] 1.47% | viability, T/C (second compound 0.316 µM, first compound 0.00999 µM) 9.75% | viability, T/C [13] 4.25% | viability, T/C (second compound 0.316 µM, first compound 0.0999 µM) 1.6% | viability, T/C [15] 1.03% | viability, T/C (second compound 1 µM, first compound 0.00999 µM) 7.19% | viability, T/C [19] 1.29% | viability, T/C (second compound 1 µM, first compound 0.0999 µM) 0.07% | viability, T/C [21] 0.1% | viability, T/C (second compound 3.16 µM, first compound 0.00999 µM) 2.82% | viability, T/C [25] 0.24% | viability, T/C (second compound 3.16 µM, first compound 0.0999 µM) 0.06% | viability, T/C [27] 0.1% | viability, T/C (second compound 10 µM, first compound 0.000999 µM) 0.08% | viability, T/C (second compound 10 µM, first compound 0.00316 µM) 0.14% | viability, T/C (second compound 10 µM, first compound 0.00999 µM) 0.13% | viability, T/C [31] 0.1% | viability, T/C (second compound 10 µM, first compound 0.0999 µM) 0.11% | viability, T/C [33] 0.13%
< 0.000999 µM: IC50 (second compound 0.0316 µM) | IC50 (second compound 0.1 µM) | IC50 (second compound 0.316 µM) | IC50 (second compound 1 µM) | IC50 (second compound 3.16 µM) | IC50 (second compound 10 µM)

C#Cc1c(F)ccc2cc(O)cc(-c3ncc4c(N5CC6CCC(C5)N6)nc(OCC56CCCN5CC(F)C6)nc4c3F)c12 (stereo unspecified) + CN(C)c1ccc(Nc2c3ccc(NC(=O)CCN4CCCC4)cc3nc3cc(NC(=O)CCN4CCCC4)ccc23)cc1
active: viability, T/C [35] 13.9% | viability, T/C [36] 1.6%
< 0.0316 µM: IC50 (second compound 10 µM)
> 10 µM: IC50 (second compound 0.0316 µM) | IC50 (second compound 0.1 µM) | IC50 (second compound 0.316 µM) | IC50 (second compound 1 µM)
7.98 µM: IC50 (second compound 3.16 µM)
inactive: viability, T/C [1] 108% | viability, T/C [2] 95.7% | viability, T/C [3] 105% | viability, T/C [4] 96.8% | viability, T/C [5] 106% | viability, T/C [6] 87.6% | viability, T/C [7] 110% | viability, T/C [8] 86.5% | viability, T/C [9] 99.8% | viability, T/C [10] 98.4% | viability, T/C [11] 89% | viability, T/C [12] 85.4% | viability, T/C [13] 105% | viability, T/C [14] 99.3% | viability, T/C [15] 96.6% | viability, T/C [16] 89.2% | viability, T/C [17] 91.4% | viability, T/C [18] 87.5% | viability, T/C [19] 88.9% | viability, T/C [20] 97.7% | viability, T/C [21] 99% | viability, T/C [22] 102% | viability, T/C [23] 94.5% | viability, T/C [24] 104% | viability, T/C [25] 95.3% | viability, T/C [26] 106% | viability, T/C [27] 97.2% | viability, T/C [28] 89.4% | viability, T/C [29] 86.1% | viability, T/C [30] 41.2% | viability, T/C [31] 21.5% | viability, T/C [32] 15.8% | viability, T/C [33] 18.9% | viability, T/C [34] 13.7%
